Converted amounts (≈) assume the structure as drawn.
Legend:
[1] = Cytotoxicity against MDCK cells; format: cell-based, Canis lupus familiaris; conditions: dog
[2] = Cytotoxicity against african green monkey Vero cells; format: cell-based; conditions: chlorocebus sabaeus

Compound | CC50 [1] | CC50 [2]
CC(=O)O[C@@H]1[C@@H](OC(C)=O)/C(C)=C\[C@@H]2OC(=O)[C@]3(C)O[C@]23[C@H](OC(C)=O)[C@H]2[C@](C)(O)[C@H](OC(C)=O)C=C[C@]2(C)[C@H]1OC(C)=O [BRIARLIDE A] | 4.74 µg/mL (≈ 7.61 µM) | 2.07 µg/mL (≈ 3.32 µM)
CC(=O)O[C@@H]1[C@H]2[C@](C)(O)[C@H](OC(C)=O)C=C[C@]2(C)[C@@H](OC(C)=O)[C@H](O)[C@@H](OC(C)=O)/C(C)=C\[C@@H]2OC(=O)[C@]3(C)O[C@@]213 [BRIARLIDE B] | 15.4 µg/mL (≈ 26.5 µM) | 18.9 µg/mL (≈ 32.6 µM)
CC(=O)O[C@@H]1[C@H]2[C@](C)(O)[C@H](OC(C)=O)C=C[C@]2(C)[C@@H](O)[C@H](O)[C@@H](OC(C)=O)/C(C)=C\[C@@H]2OC(=O)[C@]3(C)O[C@@]213 [BRIARLIDE C] | 38.6 µg/mL (≈ 71.7 µM) | 62.1 µg/mL (≈ 115 µM)
CCCCCCCC(=O)O[C@H]1/C(C)=C\[C@@H]2OC(=O)[C@]3(C)O[C@]23[C@H](OC(C)=O)[C@H]2[C@](C)(O)[C@H](OC(C)=O)C=C[C@]2(C)[C@@H](OC(C)=O)[C@@H]1O [BRIARLIDE D] | 2.49 µg/mL (≈ 3.75 µM) | 2.26 µg/mL (≈ 3.4 µM)
CCCCCC(=O)O[C@H]1/C(C)=C\[C@@H]2OC(=O)[C@]3(C)O[C@]23[C@H](OC(C)=O)[C@H]2[C@](C)(O)[C@H](OC(C)=O)C=C[C@]2(C)[C@@H](OC(C)=O)[C@@H]1O [BRIARLIDE E] | 4.91 µg/mL (≈ 7.71 µM) | 4.24 µg/mL (≈ 6.66 µM)
CCCCCCCC(=O)O[C@@H]1[C@@H](O)/C(C)=C\[C@@H]2OC(=O)[C@]3(C)O[C@]23[C@H](OC(C)=O)[C@H]2[C@](C)(O)[C@H](OC(C)=O)C=C[C@]2(C)[C@H]1OC(C)=O [BRIARLIDE F] | 3.49 µg/mL (≈ 5.25 µM) | 4.26 µg/mL (≈ 6.41 µM)
CC(=O)O[C@@H]1[C@H]2[C@](C)(O)[C@H](OC(C)=O)C=C[C@]2(C)[C@@H](OC(C)=O)[C@H](OC(C)=O)C/C(C)=C\[C@@H]2OC(=O)[C@]3(C)O[C@@]213 [BRIARLIDE G] | 67.1 µg/mL (≈ 119 µM) | 22.2 µg/mL (≈ 39.3 µM)
CC(=O)O[C@@H]1[C@H]2[C@](C)(O)[C@H](O)C=C[C@]2(C)[C@@H](O)[C@H](OC(C)=O)C/C(C)=C\[C@@H]2OC(=O)[C@]3(C)O[C@@]213 [BRIARLIDE H] | > 100 µg/mL | > 100 µg/mL
CC(=O)O[C@@H]1[C@@H](OC(C)=O)/C(C)=C\[C@@H]2OC(=O)[C@]3(C)O[C@]23[C@H](OC(C)=O)[C@H]2[C@](C)(O)[C@H](O)C=C[C@]2(C)[C@H]1OC(C)=O [VIOLIDE B] | 28.8 µg/mL (≈ 49.6 µM) | 9.8 µg/mL (≈ 16.9 µM)
